A value given as a limit tells only on which side of the number the result lay.

The assay is described as follows: Cytotoxicity against chicken HD11 cells assessed as cell viability after 24 hrs by MTS assay. The note with it: Gallus gallus, HD11, 24 h. It is filed as ADME, cell-based.
Turning to `C=C1C(=O)O[C@@H]2C[C@H](C)[C@@]3(O)C=C(C(C)=O)[C@@]4(O[C@@H]3C[C@H]12)C(=O)O[C@H]1C[C@@H](C)[C@]2(/C=C/C(C)=O)O[C@@H]2C[C@H]14`, the IC50 was over 30 µM.
With `C=C1C(=O)O[C@@H]2C[C@@H](C)[C@@H]3[C@@H](OC(C)=O)C[C@@H](OC(C)=O)[C@@]3(C)[C@@H](OC(C)=O)[C@H]12`, the IC50 is over 30 µM.
Next, `CC(=O)O[C@H]1[C@@H]2[C@H](C)C(=O)O[C@@H]2C[C@@H](C)[C@@H]2C=CC(=O)[C@]21C`: 21 µM.
As for `C=C1C(=O)O[C@H]2[C@H]1[C@H](OC(=O)[C@@]1(C)O[C@H]1C)[C@@H](OC(C)=O)/C(C(=O)OC)=C\CC[C@@]1(C)O[C@H]21` [ENHYDRIN], the IC50 stood at 7.49 µM.
As for `C=C(CO)C(=O)O[C@H]1C/C(C)=C\CC/C(CO)=C\[C@H]2OC(=O)C(=C)[C@H]12` [ONOPORDOPICRIN], the IC50 is over 30 µM.
Regarding `CC(C)CC(=O)O[C@H]1[C@@H]2[C@H](C)C(=O)O[C@@H]2C[C@@H](C)[C@@H]2C=CC(=O)[C@]21C`, the IC50 is over 30 µM.
With `C=C1C(=O)O[C@@H]2/C=C(\CO)CC/C=C(\C)C[C@H](OC(=O)C(=C)[C@H](O)CO)[C@@H]12` [CNICIN], the IC50 is over 30 µM.
Regarding `C/C1=C\CC[C@@]2(C)O[C@@H]2[C@H]2OC(=O)[C@@H](C)[C@@H]2CC1` [11BETA,13-DIHYDRO-PARTHENOLIDE], the IC50 is over 30 µM.
Next, `C=C1C(=O)O[C@@H]2/C=C(/CO)C[C@H](O)/C=C(/C(=O)OC)[C@@H](OC(C)=O)[C@@H](OC(=O)C(C)C)[C@@H]12`: 24.8 µM; `C=C(C)C(=O)O[C@@H]1C[C@@]2(C)OC(=CC2=O)C(=C)C[C@H]2OC(=O)C(=C)[C@H]12`: 10.4 µM; `C=C1C(=O)O[C@@H]2/C=C(\C)CC[C@H]3O[C@]3(CO)C[C@@H](OC(=O)C3(C)OC3C)[C@@H]12` (stereo partly drawn): over 30 µM.
Consider `C=C1C(=O)O[C@@H]2[C@H]3C(C)=CC[C@@]34O[C@@]4(C)CC[C@@H]12` [ARGLABIN], for which the IC50 was over 30 µM.
As for `C=C1C(=O)O[C@@H]2C[C@@]3(C)CCCC(=C)[C@@H]3C[C@H]12` [ISOALANTOLACTONE], the IC50 is over 30 µM.
Consider `C=C1C(=O)O[C@@H]2/C=C(/C)[C@@H](O)C[C@H]3O[C@]3(COC(C)=O)C[C@@H](OC(=O)/C(C)=C\C)[C@@H]12` [ROTUNDIN], for which the IC50 was over 30 µM.
For `C=C1C[C@H]2OC(=O)C(=C)[C@@H]2[C@H](OC(=O)/C(C)=C/C)C[C@@]2(C)OC1=CC2=O`, the IC50 came out at 12.1 µM.
Take `C=C1C(=O)O[C@@H]2C[C@@H](C)[C@@H]3C=CC(=O)[C@@]3(C)[C@@H](O)[C@H]12` [HELENALIN]: the IC50 came to 21.1 µM.
Take `C=C1C(=O)O[C@@H]2C[C@H](C)C(/C=C/C(C)=O)=CC[C@H]12`: the IC50 is over 30 µM.
Next, `C=C1C(=O)O[C@H]2C[C@@H](C)[C@@H]3C=CC(=O)[C@@]3(C)[C@H](O)[C@H]12` [MEXICANIN I]: 21.1 µM; `C=C1C(=O)O[C@@H]2/C=C(/C)[C@@H](O)C/C=C(\C)C[C@H](OC(=O)/C(C)=C\C)[C@@H]12` [NOBILIN]: over 30 µM.
Next, `C=C1C(=O)O[C@@H]2C[C@H](C)[C@]3(/C=C/C(C)=O)O[C@@H]3C[C@H]12`: over 30 µM; `C=C1C(=O)O[C@@H]2/C=C(\C)CC/C=C(/C(=O)OC)[C@H](OC(C)=O)[C@@H](OC(=O)[C@]3(C)O[C@@H]3C)[C@@H]12` [UVEDALIN]: 11.4 µM; `C=C1C(=O)O[C@@H]2C[C@@H](C)[C@@H]3[C@@H](OC(C)=O)C[C@@H](O)[C@@]3(OC(C)=O)C[C@H]12`: over 30 µM.
On to `C=C1C(=O)O[C@@H]2C[C@@H](C)[C@@H]3[C@@H](OC(C)=O)C[C@@H](O)[C@@]3(C)C[C@H]12`, for which the IC50 is over 30 µM.
To `C=C1C(=O)O[C@@H]2C[C@@]3(C)C[C@@H](O)CC(=C)[C@@H]3C[C@H]12` [IVALIN] belongs over 30 µM; to `C=C1C(=O)O[C@@H]2C[C@@H](C)[C@@H]3[C@@H](O)CC(=O)[C@@]3(C)[C@@H](OC(=O)/C(C)=C/C)[C@H]12` [ARNIFOLIN], over 30 µM; to `C=C1C(=O)O[C@@H]2/C=C(\C)CC[C@H]3O[C@]3(COC(C)=O)C[C@@H](OC(=O)C3(C)OC3C)[C@@H]12` (stereo partly drawn), 25.5 µM.
In the case of `C=C1C(=O)O[C@@H]2C[C@@]3(C)CCC[C@H](C)C3=C[C@H]12` [HELENINE], the IC50 was over 30 µM.
With `C=C1C(=O)O[C@@H]2C[C@]3(C)[C@@H](CCC(C)=O)[C@]3(C)C[C@H]12` [CARABRONE], the IC50 is over 30 µM.
To `C=C1C(=O)O[C@@H]2C[C@@H](C)[C@@H]3[C@@H](OC(C)=O)C[C@@H](OC(C)=O)[C@@]3(C)C[C@H]12` belongs over 30 µM.
For the compound `C=C1C(=O)O[C@@H]2C[C@@]3(C)CC(=O)C[C@H](C)C3=C[C@H]12` [2-OXOALANTOLACTONE], the IC50 is over 30 µM.
Take `C=C1C(=O)O[C@@H]2/C=C(/CO)C3=CC(=O)[C@@](C)(C[C@@H](OC(=O)/C(C)=C/C)[C@@H]12)O3` [BUDLEIN A]: the half-inhibitory concentration (IC50) was determined as 9 µM.
Consider `C=C1C(=O)O[C@H]2[C@H]1[C@H](OC(=O)[C@]1(C)O[C@@H]1C)[C@@H](OC(C)=O)/C(C(=O)OC)=C\C=C/[C@@]1(C)O[C@H]21`, for which the IC50 worked out at 28 µM.
On to `C=C1C(=O)O[C@@H]2C[C@@H](C)[C@@H]3[C@@H](OC(C)=O)C[C@@H](O)[C@@]3(C)[C@@H](O)[C@H]12` [CHAMISSONOLIDE], for which the IC50 is over 30 µM.
Next, `C=C1C(=O)O[C@@H]2/C=C(\C)CC/C=C(/C(=O)OC)[C@H](OC(C)=O)[C@@H](OC(=O)C(C)(O)C(C)O)[C@@H]12` (stereo partly drawn): over 30 µM; `C=C1C(=O)O[C@@H]2/C=C(/C)[C@@H](OC(C)=O)C[C@H]3O[C@]3(O)C[C@@H](OC(=O)/C(C)=C\C)[C@@H]12`: over 30 µM; `C=C1C(=O)O[C@H]2[C@H]1[C@H](OC(C)=O)C/C(C)=C/CC[C@@]1(C)O[C@@H]21`: over 30 µM.
Take `C=C1C(=O)O[C@@H]2[C@H]3O[C@]3(C)CC/C=C(\C)[C@@H](OC(=O)CC(C)(C)O)C[C@@H]12`: the IC50 was over 30 µM.
On to `C=C1C(=O)O[C@@H]2C3O[C@]3(C)CC/C=C(\C)CC[C@@H]12` (stereo partly drawn), for which the IC50 is over 30 µM.
Regarding `C=C1C(=O)O[C@@H]2C[C@@H](C)[C@@H]3C=CC(=O)[C@@]3(C)[C@@H](OC(=O)C(C)C)[C@H]12` [HELENALINISOBUTYRATE], the IC50 is over 30 µM.
With `C=C1C[C@H](O)C[C@]2(C)C[C@H]3OC(=O)[C@@H](C)[C@H]3C[C@@H]12`, the IC50 is over 30 µM.
Consider `C=C1C(=O)O[C@@H]2/C=C(\C)CC/C=C(\C)CC[C@@H]12` [COSTUNOLIDE], for which the IC50 is over 30 µM.
Turning to `C=C1C(=O)O[C@@H]2[C@H]1CC[C@H](C)[C@]1(CCC(=O)O1)[C@@]2(C)O` [PSILOSTACHYIN A], the IC50 was over 30 µM.
Take `C=C1C(=O)O[C@@H]2[C@H]3O[C@]3(C)CC/C=C(\C)[C@@H](OC(=O)C(C)C(C)O)C[C@@H]12` (stereo partly drawn): the IC50 was over 30 µM.
Next, `C=C1C(=O)O[C@H]2C[C@H](C)[C@@H]3CC[C@@]4(C)O[C@@]34C[C@H]12`: over 30 µM; `C=C1C(=O)O[C@@H]2C[C@@H](C)[C@@H]3[C@@H](O)C[C@@H](O)[C@@]3(C)C[C@H]12`: over 30 µM.
In the case of `C=C1C(=O)O[C@@H]2[C@H]3C(C)=CC[C@H](O)[C@]3(C)CC[C@@H]12` [DOUGLANIN], the IC50 was over 30 µM.
For `C=C1CC[C@H]2C(=C)CC[C@H]3C(=C)C(=O)O[C@@H]3[C@@H]12` [DEHYDROCOSTUSLACTONE], the IC50 was over 30 µM.
In the case of `C=C1C(=O)O[C@@H]2C[C@H](C)[C@@]3(O)C=C(C(C)=O)[C@@]4(O[C@@H]3C[C@H]12)C(=O)O[C@H]1C[C@@H](C)C(/C=C/C(C)=O)=CC[C@H]14`, the IC50 is over 30 µM.
As to `C=C1C(=O)O[C@@H]2C[C@@H](C)[C@@H]3C=CC(=O)[C@@]3(C)[C@@H](OC(C)=O)[C@H]12` [ANGUSTIBALIN], the IC50 came out at 7.34 µM.
Regarding `C=C(C)C(=O)O[C@H]1C[C@@]2(C)OC(=CC2=O)/C(CO)=C\[C@H]2OC(=O)C(=C)[C@H]12` [GOIAZENSOLIDE], the IC50 was 10.1 µM.
Next, `C=C1C(=O)O[C@@H]2C[C@@H](C)[C@@H]3[C@@H](O)C[C@@H](OC(=O)/C(C)=C/C)[C@@]3(C)[C@@H](O)[C@H]12`: over 30 µM; `C=C1C(=O)O[C@@H]2/C=C(/C)C(=O)/C=C/[C@](C)(O)C[C@@H](OC(=O)C(C)C)[C@@H]12` [TAGITININ C]: 30.9 µM; `C=C1C(=O)O[C@@H]2C[C@H](C)[C@]3(O)CCC(=O)[C@@]3(C)C[C@H]12` [PERUVIN]: over 30 µM.
In the case of `C=C1C(=O)O[C@@H]2C[C@@H](C)[C@@H]3CCC(=O)[C@@]3(C)C[C@H]12`, the 50% inhibitory concentration (IC50) was over 30 µM.
Consider `C=C1C[C@H]2OC(=O)C(=C)[C@@H]2[C@H](OC(=O)C(C)C)C[C@@]2(C)OC1=CC2=O`, for which the IC50 came out at 25.2 µM.
`C=C1C(=O)O[C@@H]2C[C@@H](C)C(=O)C/C=C(\C)CC[C@@H]12` [ARGOLIDE]: the IC50 is over 30 µM.
Consider `C=C1C(=O)O[C@@H]2[C@H]3O[C@]3(C)CC/C=C(\C)[C@@H](OC(=O)CC3(C)OC3C)C[C@@H]12` (stereo partly drawn), for which the IC50 was 22.2 µM.
In the case of `C=C1C(=O)O[C@@H]2/C=C(/C)[C@@H](O)C[C@H]3O[C@]3(C)C[C@@H](OC(=O)/C(C)=C\C)[C@@H]12` [EPOXYNOBILIN], the IC50 is over 30 µM.

These data come from ChEMBL document CHEMBL2380234, “Natural sesquiterpene lactones as inhibitors of Myb-dependent gene expression: structure-activity relationships” (Eur J Med Chem, 2013).
